Read-outs that look alike come from different tables or passages of the source.

One assay addresses T1, 12-lipoxygenase (Rattus norvegicus, UniProt F1LQ70).
T1 construct: The pelleted platelets were rinsed twice with a washing buffer; from tissue; host or cells: platelets of Sprague Dawley male rat (sonicate, 100,000 x g supernatant)
T1 sequence (F1LQ70 1-663): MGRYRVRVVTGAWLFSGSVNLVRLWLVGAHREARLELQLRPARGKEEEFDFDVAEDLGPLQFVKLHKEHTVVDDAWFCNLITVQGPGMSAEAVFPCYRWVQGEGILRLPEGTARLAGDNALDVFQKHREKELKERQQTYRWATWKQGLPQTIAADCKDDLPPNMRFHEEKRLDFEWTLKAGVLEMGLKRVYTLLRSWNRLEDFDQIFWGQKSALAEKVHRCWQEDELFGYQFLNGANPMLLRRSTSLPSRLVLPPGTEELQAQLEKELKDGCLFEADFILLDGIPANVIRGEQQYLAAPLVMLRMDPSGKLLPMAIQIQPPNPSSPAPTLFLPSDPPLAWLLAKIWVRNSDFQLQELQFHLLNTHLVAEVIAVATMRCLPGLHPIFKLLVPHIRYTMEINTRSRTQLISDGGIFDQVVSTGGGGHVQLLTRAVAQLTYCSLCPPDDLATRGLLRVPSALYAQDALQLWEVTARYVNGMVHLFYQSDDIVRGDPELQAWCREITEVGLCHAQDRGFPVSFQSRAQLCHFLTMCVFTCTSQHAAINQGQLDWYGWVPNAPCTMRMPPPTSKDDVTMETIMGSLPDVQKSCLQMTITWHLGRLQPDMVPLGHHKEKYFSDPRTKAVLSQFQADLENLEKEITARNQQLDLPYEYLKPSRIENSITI
In words: 12-lipoxygenase inhibition assay (rat platelet enzyme solution). The class given is biochemical, Sprague Dawley male rat. To be noted: for 12-Lipoxygenase inhibition ratio (%) / inhibition at 10 µM: 10^-5 (mole concentration); for 12-Lipoxygenase inhibition ratio (%): 10 µM; for inhibition at 10 µM / inhibition at 1 µM / inhibition at 0.1 µM: read-out: 12-Lipoxygenase inhibition ratio (%); for inhibition at 1 µM: 10^-6 (mole concentration); for inhibition at 0.1 µM: 10^-7 (mole concentration). On the procedure: The test was performed to examine inhibitory effect of various compounds on the 12-lipoxyganase activity.
1) Preparation of Enzyme Solution
A Sprague Dawley male rat was anesthetized with ether and bled from abdominal aorta using a syringe filled with about one-tenth volume of 3.8% sodium citrate. Blood was centrifuged at 180×g for 15 minutes at room temperature to pellet sanguineous platelet blood plasma. The resultant supernatant was again centrifuged at 1800×g for 10 minutes at 4° C. The pelleted platelets were rinsed twice with a washing buffer (50 mM Tris-hydrochloric acid buffer containing 154 mM sodium chloride and 2 mM EDTA, pH: 7.4). The platelets were then suspended in one-twentieth volume of a resuspension buffer (50 mM Tris-hydrochloric acid buffer containing 154 mM sodium chloride and 5.5 mM glucose, pH: 7.4). The platelets were then sonicated at 4° C. and centrifuged at 100,000×g for 30 minutes to obtain a supernatant as a 12-lipoxgenaseenzyme solution.
2) Procedure for 12-lipoxgenase inhibition assay
The enzyme solution described above was diluted with the resuspension buffer above mentioned to prepare an assay solution so as to include about 2 mU/ml of 12-lipoxygenase. […] The resultant mixture was incubated at 37° C. for 5 minutes. Subsequently, 3 μl of a 2.5 mM arachidonic acid solution in ethanol was added to incubate with for another 5 minutes at 37° C., then the reaction was ceased by the addition of 600 μl of methanol. After being centrifuged at 10,000×g for 5 minutes, 12-hydroxyeicosatetraenoic acid recovered in the supernatant was separated with a reverse phase high-performance liquid chromatography equipped with a […] the activity of 12 lipoxygenase.
The enzyme solution was prepared according to the same manner as in Test Example 1.
It was prepared according to the same procedure as in Test Example 1.
Measurement was performed according to the same procedure as in Test Example 1.
The measurement was performed according to the same procedure as in Test Example 1.

The target of the next assay is T2, 5-lipoxygenase (Rattus norvegicus, UniProt P12527).
T2 construct: Cultured cells were collected and washed twice; host or cells: RBL-1 rat basophilic leukemia cells (sonicate, 10,000 x g supernatant)
T2 sequence (P12527 1-673): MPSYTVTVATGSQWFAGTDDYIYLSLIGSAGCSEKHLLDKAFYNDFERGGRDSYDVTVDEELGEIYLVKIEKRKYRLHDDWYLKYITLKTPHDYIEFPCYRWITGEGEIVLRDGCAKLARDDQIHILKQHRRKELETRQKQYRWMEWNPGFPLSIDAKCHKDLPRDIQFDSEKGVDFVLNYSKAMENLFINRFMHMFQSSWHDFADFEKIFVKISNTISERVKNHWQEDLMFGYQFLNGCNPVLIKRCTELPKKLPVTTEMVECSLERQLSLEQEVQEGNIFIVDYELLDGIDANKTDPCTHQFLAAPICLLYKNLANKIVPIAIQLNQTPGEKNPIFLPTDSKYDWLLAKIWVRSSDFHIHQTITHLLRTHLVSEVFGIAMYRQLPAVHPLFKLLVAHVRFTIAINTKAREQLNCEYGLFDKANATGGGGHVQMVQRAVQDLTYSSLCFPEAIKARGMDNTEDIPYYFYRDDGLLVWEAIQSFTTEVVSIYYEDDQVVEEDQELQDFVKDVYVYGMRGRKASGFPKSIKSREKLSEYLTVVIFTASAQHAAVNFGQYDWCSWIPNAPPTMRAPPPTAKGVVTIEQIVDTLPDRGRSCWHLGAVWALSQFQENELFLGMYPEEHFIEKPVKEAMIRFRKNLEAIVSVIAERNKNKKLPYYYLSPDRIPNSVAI
In words: 5-lipoxygenase inhibition assay (rat basophilic leukemia cell RBL-1 enzyme solution). The class given is biochemical. The procedure:
The test was carried out to examine the selectivity toward 12-lipoxgenase of the compounds of the first embodiment in the present invention.
i) Preparation of 5-lipoxgenase enzyme solution
Rat basophilic leukemia cells (RBL-1, ATCC CRL1378) were cultured in Dulbecco modified Eagle's medium containing 10% new-born bovine serum.
Cultured cells were collected and washed twice with a 50 mM Tris-buffered saline (containing 154 mM sodium chloride, pH: 7.4, hereinafter described as TBS). The cell suspension (4×10^7 cells/ml) was then sonicated and centrifuged at 10,000×g for 10 minutes.
The resultant supernatant was used to prepare an assay solution.
i) Procedure for 5-lipoxgenase inhibition assay
To an aliquot (15 μl) of the enzyme solution (40 mU/ml equivalent) was added 185 μl of TBS, 50 μl of a 2 mM adenosine triphosphate in TBS, 50 μl of a 12 mM calcium chloride in TBS, 1 μl of a 3 mM indomethacin in ethanol solution, 1 μl of an aqueous 300 mM reduced glutathione solution, and 3 μl of varied concentrated test compounds solution in ethanol. The resultant mixture was incubated at 37° C. for 5 minutes. Subsequently, 3 μl of a 2.5 mM arachidonic acid solution in ethanol was added to incubate the mixture for 2 minutes at 37° C. The reaction was ceased by the addition of 600 μl of methanol After being centrifuged at 10,000×g for 5 minutes, 5-hydroxyeicosatetraenoic acid recovered in the supernatant was separated with a reverse phase high-performance liquid chromatography equipped with a C-18 column and measured the absorption of diene at 234 nm to quantify the activity of the enzyme. […]
The enzyme activities of the compounds of the present invention prepared according to the same procedure as in Examples 54-58 to be described later and baicalein as sample substances at varied concentrations were measured according to the above-mentioned method, and mole concentrations showing 50% 12-lipoxgenase and 5-lipoxgenase inhibition ratios (hereinafter may be described as IC50 values) were obtained from the measured values of the sample substances.

Setting [1] is: Table 3, read-out: IC50 values of 5-lipoxygenase (mole).
Where [2] appears, read: Table 3, read-out: IC50 values of 12-lipoxygenase (mole).
[3] abbreviates: Table 12, deacylated compounds, read-out: 12-Lipoxygenase inhibitory effect of deacylated compounds (IC50 values).
[4] abbreviates: Table 2, read-out: 12-Lipoxygenase IC50 values.
[5] abbreviates: Table 23, read-out: 5-Lipoxygenase inhibitory effect IC50.
Setting [6] is: Table 23, read-out: 12-Lipoxygenase inhibitory effect IC50.

With `N#CC(=Cc1ccc(O)cc1)c1ccc(Cl)cc1` [Comp. Ex. 2, reference compound], on 12-lipoxygenase, the “12-Lipoxygenase inhibition ratio (%)” value was 10%, the inhibition at 10 µM was less than 10%, the inhibition at 1 µM came out at 2% and the inhibition at 0.1 µM came out at 5%.
With `N#CC(=Cc1cccc(O)c1)c1ccc(Cl)cc1` [Comp. Ex. 1, reference compound], at 12-lipoxygenase, the “12-Lipoxygenase inhibition ratio (%)” value is 7%, the inhibition at 10 µM is less than 10%, the inhibition at 1 µM worked out at 1% and the inhibition at 0.1 µM was 0%.
As usually defined, the IC50 is the concentration needed to halve the response being measured. In the case of `Cc1ccc(C=C(C#N)c2ccc(O)c(O)c2)cc1` [Ex. 24, α-cyano-4'-methyl-3,4-dihydroxystilbene], the IC50 at 5-lipoxygenase (setting [1]) was 52 nM; on 12-lipoxygenase (setting [2]), 2.5 nM; on 12-lipoxygenase (setting [3]), 4.5 nM.
For `N#CC(=Cc1ccc(C(=O)O)cc1)c1ccc(O)c(O)c1` [Comp. Ex. 9, reference compound], the IC50 at 12-lipoxygenase (setting [4]) came out at 5000 nM.
`N#CC(=Cc1cccc2ccccc12)c1ccc(O)c(O)c1` [Formula 25c]: the concentration for half-maximal inhibition (IC50) at 5-lipoxygenase (setting [5]) is 36 nM; at 12-lipoxygenase (setting [6]), 5.9 nM.
As for `Oc1ccc(/C=C/c2ccccc2)cc1O` [Comp. Ex. 5, reference compound], the “12-lipoxygenase inhibitory effect (in words)” value at 12-lipoxygenase is “remarkably poor compared with that of the compound (Example 1)”. Further, the IC50 at 12-lipoxygenase (setting [4]) came out at 1200 nM.
On to `N#CC(=Cc1cc(O)c(O)c(O)c1)c1ccc(Cl)cc1` [Ex. 15, α-cyano-4-chloro-3',4',5'-trihydroxystilbene], for which the IC50 at 5-lipoxygenase (setting [1]) came out at 56 nM; at 12-lipoxygenase (setting [2]) it was 14 nM.
For `N#CC(=Cc1ccc(O)c(O)c1)c1ccc(F)cc1` [Ex. 3], in that order: 94 nM and 4.8 nM.
`Cc1ccc(C=C(C#N)c2ccc(O)c(O)c2)s1` [Ex. 27, α-(5-methylthiophen-2-ylmethylidene)-3,4-dihydroxybenzeneacetonitrile]: the IC50 was found to be 66 nM at 5-lipoxygenase (setting [1]) and 7.7 nM on 12-lipoxygenase (setting [2]).
For the compound `N#CC(=Cc1ccc(O)c(O)c1)c1csc2ccccc12` [Formula 22c], the IC50 at 5-lipoxygenase (setting [5]) is 56 nM; on 12-lipoxygenase (setting [6]), 8.6 nM.
`N#CC(=Cc1ccc(O)c(O)c1)c1ccccc1` [Ex. 9]: the IC50 at 5-lipoxygenase (setting [1]) turned out to be 110 nM; on 12-lipoxygenase (setting [2]), 15 nM.
For `N#CC(=Cc1ccc(O)c(O)c1)c1ccc(O)cc1` [Comp. Ex. 7, reference compound], the IC50 at 12-lipoxygenase (setting [4]) stood at 230 nM.
`COc1ccc(C(C#N)=Cc2ccc(O)c(O)c2)cc1` [Formula 55b, α-cyano-4-methoxy-3',4'-dihydroxystilbene]: at 12-lipoxygenase (setting [3]), the IC50 was 6 nM.
As to `N#CC(=Cc1cccc(Cl)c1)c1ccc(O)c(O)c1` [Ex. 22, α-cyano-3'-chloro-3,4-dihydroxystilbene], the IC50 at 5-lipoxygenase (setting [1]) stood at 34 nM; on 12-lipoxygenase (setting [2]), 5.1 nM; at 12-lipoxygenase (setting [3]), 5.1 nM.
Turning to `N#CC(=Cc1ccc(Cl)cc1)c1ccc(O)c(O)c1` [Ex. 2, α-cyano-4'-chloro-3,4-dihydroxystilbene], the IC50 on 5-lipoxygenase (setting [1]) is 56 nM; on 12-lipoxygenase (setting [2]) it was 1.8 nM; on 12-lipoxygenase (setting [3]) it was 1.8 nM.
Turning to `Cc1cccc(C=C(C#N)c2ccc(O)c(O)c2)c1` [Bz. 25, α-cyano-3'-methyl-3,4-dihydroxystilbene], the IC50 on 5-lipoxygenase (setting [1]) was 44 nM; at 12-lipoxygenase (setting [2]) it was 7 nM.
As to `N#CC(=Cc1ccc(O)c(O)c1)c1ccc([N+](=O)[O-])cc1` [Ex. 17, α-cyano-4-nitro-3',4'-dihydroxystilbene], the values for the IC50 on 5-lipoxygenase (setting [1]), at 12-lipoxygenase (setting [2]) and at 12-lipoxygenase (setting [3]) were 130 nM, 8.8 nM and 8.8 nM, respectively.
Consider `N#CC(=Cc1ccc(F)cc1)c1ccc(O)c(O)c1` [Ex. 21, α-cyano-4'-fluoro-3,4-dihydroxystilbene], for which the IC50 at 5-lipoxygenase (setting [1]) worked out at 74 nM; on 12-lipoxygenase (setting [2]), 4.8 nM; at 12-lipoxygenase (setting [3]), 4.8 nM.
As for `N#CC(=Cc1ccc(O)c(O)c1)c1cc(Br)cs1` [Ex. 13, α-(3,4-dihydroxybenzylidene)-4-bromothiophene-2-acetonitrile], the values for the IC50 on 5-lipoxygenase (setting [1]), on 12-lipoxygenase (setting [2]) and at 12-lipoxygenase (setting [3]) were 36 nM, 3 nM and 3 nM, respectively.
Turning to `COc1ccc(C=C(C#N)c2ccc(Cl)cc2)cc1O` [Comp. Ex. 3, reference compound], on 12-lipoxygenase, the “12-Lipoxygenase inhibition ratio (%)” value worked out at 10%, the inhibition at 10 µM was less than 10%, the inhibition at 1 µM worked out at 1% and the inhibition at 0.1 µM was found to be 0%.
Take `N#CC(=Cc1ccc(O)c(O)c1)c1ccc(O)c(O)c1` [Comp. Ex. 8, reference compound]: the half-maximal inhibitory concentration (IC50) on 12-lipoxygenase (setting [4]) came to 300 nM.
As to `CCOC(=O)C(=Cc1ccc(O)c(O)c1)c1ccccc1` [Comp. Ex. 6, reference compound], the “12-lipoxygenase inhibitory effect (in words)” value at 12-lipoxygenase is reported as “remarkably poor compared with that of the compound (Example 1)”. Besides, at 12-lipoxygenase (setting [4]), the IC50 is 160 nM.
In the case of `COc1cc(C=C(C#N)c2ccc(Cl)cc2)ccc1O` [Comp. Ex. 4, reference compound], at 12-lipoxygenase, the “12-Lipoxygenase inhibition ratio (%)” value was found to be 2%, the inhibition at 1 µM was 0% and the inhibition at 0.1 µM was found to be 0%.

Source of the values: patent publication US5589506A, “Stilbene derivative and stilbene analog derivative, and use thereof” (Morinaga Milk Industry Co., Ltd., priority 1993, dated 1996).
